Values of other authors as cited in patent US20250295648A1 (priority 2024, published 2025).

Tested on: Parkinson's patients with troublesome L-DOPA-induced dyskinesia
Details: cited from earlier work

Fc1ccc(-c2cncc(CNC[C@H]3CCc4ccccc4O3)c2)cc1 [sarizotan]
effect on L-DOPA efficacy (phase 2b study, Goetz 2007): two of the three tested doses significantly reduced L-DOPA efficacy | reduction of LID (third (lowest) dose, two phase 3 trials): ineffective in reducing LID
